Assay [1] addresses T1, M. tuberculosis lumazine synthase (recombinant homopentameric) (Mycobacterium tuberculosis, UniProt P9WHE9). Type of assay: biochemical. To be noted: for Kcat (rate constant ES → E + P): pH 7.
The target of assay [2] is T2, S. pombe lumazine synthase (recombinant homopentameric) (Schizosaccharomyces pombe, UniProt Q9UUB1).
T2 sequence (Q9UUB1 1-159): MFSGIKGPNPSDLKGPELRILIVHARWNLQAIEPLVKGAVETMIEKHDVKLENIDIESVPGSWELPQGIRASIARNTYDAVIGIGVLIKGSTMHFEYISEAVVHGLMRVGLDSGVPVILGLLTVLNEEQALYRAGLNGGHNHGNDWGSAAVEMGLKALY
The assay is described as follows: Kinetic assay of lumazine synthase inhibitors, S. pombe enzyme. The class given is biochemical. To be noted: for Kcat (rate constant ES → E + P) / Kis (ES + I ⇌ ESI) / Ks (substrate dissociation constant, E + S ⇌ ES): substrate 2 constant, substrate 1 varied, Tris·HCl pH 7.0.

In assay [3] the target is M. tuberculosis riboflavin synthase (recombinant) (Mycobacterium tuberculosis, UniProt P9WK35). The assay is described as follows: Kinetic assay of riboflavin synthase inhibitors, M. tuberculosis enzyme. The class given is biochemical.
Assay [4] deals with T3, E. coli riboflavin synthase (recombinant) (Escherichia coli, UniProt P0AFU8). Kind of assay: Kinetic assay of riboflavin synthase inhibitors, E. coli enzyme. The class given is biochemical. To be noted: for Kcat (rate constant ES → E + P) / Ks (substrate dissociation constant, E + S ⇌ ES) / Kis (ES + I ⇌ ESI): substrate 3 varied, Tris·HCl pH 7.0.
Assay [5] concerns B. subtilis lumazine synthase (recombinant β60 capsid). To be noted: previously reported compounds; cited from earlier work.
Assay [6] concerns the target T1, M. tuberculosis lumazine synthase (recombinant homopentameric). The following applies: previously reported compounds, cited from earlier work.
Assay [7] deals with baker's yeast riboflavin synthase. The following applies: cited from earlier work.
The target of assay [8] is Ashbya gossypii riboflavin synthase. The following applies: cited from earlier work.
Assay [9] concerns the target T3, E. coli riboflavin synthase (recombinant). To be noted: previously reported compounds, cited from earlier work.
The mark [10] stands for this setting: substrate 2 constant, substrate 1 varied, Tris·HCl pH 7.0.
[11] abbreviates: substrate 3 varied, Tris·HCl pH 7.0.

Read-outs that look alike come from different tables or passages of the source. Bounds are passed on as bounds.

M. tuberculosis riboflavin synthase (recombinant), sequence (P9WK35 whole entry): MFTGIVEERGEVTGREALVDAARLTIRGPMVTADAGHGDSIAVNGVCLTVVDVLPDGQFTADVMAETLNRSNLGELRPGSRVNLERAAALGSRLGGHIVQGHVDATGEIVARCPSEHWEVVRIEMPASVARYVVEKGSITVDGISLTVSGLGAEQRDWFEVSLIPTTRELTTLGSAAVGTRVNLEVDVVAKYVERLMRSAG
T3 sequence (P0AFU8 whole entry): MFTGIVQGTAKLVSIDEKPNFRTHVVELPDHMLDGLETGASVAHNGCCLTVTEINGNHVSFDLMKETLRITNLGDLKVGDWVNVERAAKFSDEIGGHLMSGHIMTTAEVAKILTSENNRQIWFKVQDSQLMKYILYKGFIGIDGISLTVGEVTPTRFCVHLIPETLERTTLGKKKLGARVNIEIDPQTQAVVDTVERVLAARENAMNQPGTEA
T1 sequence (P9WHE9 whole entry): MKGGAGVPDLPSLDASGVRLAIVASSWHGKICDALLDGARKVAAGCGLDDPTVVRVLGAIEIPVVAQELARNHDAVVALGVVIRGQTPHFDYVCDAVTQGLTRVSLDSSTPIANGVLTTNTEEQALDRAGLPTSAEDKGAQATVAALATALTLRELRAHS

For the compound `O=c1[nH]c(OC[C@H](O)[C@H](O)[C@H](O)CO)c([N+](=O)[O-])c(=O)[nH]1` [Compound 22, 5-Nitro-6-((2S,3R,4R)-2,3,4,5-tetrahydroxypentyloxy)pyrimidine-2,4(1H,3H)-dione], the Mechanism of inhibition result in assay [1] is given as “Competitive”; in assay [2] it was “Partial”; in assay [3], “Partial”; in [4] it was “Competitive”. Also, the “Kcat (rate constant ES → E + P)” value in assay [1] was 0.19 ± 0.00 m^−1; in [2], 1.4 ± 0.0 m^−1; in assay [3] (setting [11]), 0.26 ± 0.01 m^−1; in assay [4], 3.3 ± 0.01 m^−1. Also, the “Ks (substrate dissociation constant, E + S ⇌ ES)” value (from here on “Ks”) came to 25 ± 2 µM in assay [1] (setting [10]), 1.4 ± 0.1 µM in assay [2], 7.1 ± 0.7 µM in [3] (setting [11]) and 2.6 ± 0.2 µM in [4]. The “Kis (ES + I ⇌ ESI)” value in [2] was 110 ± 40 µM; in [3] (setting [11]), 26 ± 6 µM.

For the compound `Nc1c(OC[C@@H](O)[C@H](O)[C@@H](O)CO)[nH]c(=O)[nH]c1=O` [Compound 29, 5-Amino-6-((2R,3R,4S)-2,3,4,5-tetrahydroxypentyloxy)pyrimidine-2,4(1H,3H)-dione], the Mechanism of inhibition entry in assay [1] is on record as “Uncompetitive”; in assay [2], “Partial”; in assay [3] it was “Uncompetitive”; in [4] it was “Uncompetitive”. In addition, the “Kcat (rate constant ES → E + P)” value in assay [1] was 0.18 ± 0.01 m^−1; in assay [2] it was 1.3 ± 0.0 m^−1; in assay [3] (setting [11]), 0.25 ± 0.01 m^−1; in assay [4], 3.2 ± 0.1 m^−1. The “Kis (ES + I ⇌ ESI)” value in assay [1] (setting [10]) is greater than 1000 µM; in assay [2] it was 43 ± 8 µM; in assay [3] (setting [11]), 577 ± 121 µM; in [4], greater than 1000 µM. In addition, the “Ks” value in assay [1] (setting [10]) amounted to 27 ± 2 µM; in [2], 1.2 ± 0.1 µM; in assay [3] (setting [11]) it was 5.6 ± 0.5 µM; in assay [4], 2.5 ± 0.1 µM.

For the compound `O=c1[nH]c(=O)c2[nH]c(=O)c(=O)n(C[C@H](O)[C@H](O)[C@H](O)CO)c2[nH]1` [Compound 81, 6,7-dihydro-6,7-dioxo-8-ribityllumazine], the Mechanism of inhibition result in assay [5], in [6] and in assay [9] was “Competitive” throughout. The “Kcat (rate constant ES → E + P)” value in [6] (Tris·HCl pH 7.0) was 1.1 ± 0.1 m^−1; in assay [9] (Tris·HCl pH 7.0), 15 ± 0 m^−1. Also, the Ki in assay [7] is 25 nM; in assay [8], 9 nM.

With `COC(=O)C(=O)Nc1c(OC[C@H](O)[C@H](O)[C@H](O)CO)[nH]c(=O)[nH]c1=O` [Compound 37, Methyl 2-(2,4-dioxo-6-((2S,3R,4R)-2,3,4,5-tetrahydroxypentyloxy)1,2,3,4-tetrahydropyrimidin-5-ylamino)-2-oxoacetate], the Mechanism of inhibition result in assay [1] is on record as “Competitive”; in assay [2] it was “Partial”; in assay [3], “Uncompetitive”; in assay [4], “Uncompetitive”. Besides, the “Kcat (rate constant ES → E + P)” value in assay [1] is on record as 0.18 ± 0.00 m^−1; in assay [2], 1.5 ± 0.0 m^−1; in assay [3] (setting [11]), 0.22 ± 0.01 m^−1; in [4], 3.4 ± 0.1 m^−1. For the same compound, the “Ks” value is 29 ± 2 µM in assay [1] (setting [10]), 1.7 ± 0.2 µM in assay [2], 4.1 ± 0.4 µM in assay [3] (setting [11]) and 3.1 ± 0.2 µM in assay [4]. Besides, the “Kis (ES + I ⇌ ESI)” value in assay [2] was 56 ± 15 µM; in [3] (setting [11]), 868 ± 305 µM; in assay [4], greater than 1000 µM. The “Ki (E + I ⇌ EI)” value in assay [3] (setting [11]) was 868000 nM.

The values are drawn from paper PMC3444172 (The Journal of organic chemistry, 2012).
